Reference: US9744252B2, “Compounds for binding to the platelet specific glycoprotein IIb/IIIa and their use for imaging of thrombi” (PIRAMAL IMAGING SA, priority 2011, dated 2017)
Several values for one entry are separate records, joined by “and”; a condition that tells them apart may be missing. Equal values may be shown once. Entries after “also recorded” stand apart in the source; their conditions may differ. Read-outs that look alike come from different tables or passages of the source. One block for each molecule: values may come before it.

Experiments:
[1] = In vitro metabolic stability in liver microsomes, human; conditions: all investigated species
Description: (§1) Human liver microsomes in suspension (protein content 0.5 mg/mL) were used for metabolic stability studies. The incubation concentration was 0.3 μM. […] After addition of 30 μL of test compound the assay was started. The compound was dissolved in an organic solvent and diluted with the same liver microsome medium in order to keep the organic content below the recommended concentration (dimethylsulfoxide DMSO <0.2% and methanol <1%). […] The samples were frozen over night at −20° C. The solutions were centrifuged for 15 min at 3000 g. The clear supernatant (100 μL) was used to determine the concentration. The analysis was performed with an Agilent 1200 HPLC system with a LCMS/MS detector.
(§2) The susceptibility of investigated compounds to degradation by phase-I oxidative metabolism was investigated using liver microsomes from different species.

[2] = In vitro metabolic stability in liver microsomes, mouse; format: in vitro ADME; conditions: NMRI, female, 0.3 μM, calculated
Description: In Vitro Metabolic Stability in Liver Microsomes
The incubation concentration was 0.3 μM. […] The samples were frozen over night at −20° C.
The recovery was almost 100% for all investigated species.

[3] = both, human, 0.3 μM, pH 7.4
Description: as §1, §2

[4] = female, cynomolgus monkey, 0.3 μM, pH 7.4
Description: as §1, §2

[5] = male, Wistar, rat, 0.3 μM, pH 7.4
Description: as §1, §2

human thrombi = assay: Ex vivo blood flow model: binding to human thrombi, with cold-compound competition; conditions: 3 minutes post-injection of 18F-labeled compound; ± SEM
Description: Binding to Human Thrombi:
The binding of compounds to thrombi was further investigated in an ex vivo blood flow model similar to that described in “Wakhloo, A. K. et al. Thrombus and stroke 2008, in vitro models 57-66” but modified with regard to thrombus development. Briefly, an open handmade tube-set consisting of tygon-tubes (Tygon R-1000, part No AAU00007: I.D. 3.2 mm, O.D. 6.4 mm, Saint Gobain Performance Plastics North America), intermediate tubes (Intrafix® Infusion set, B. Braun, Melsungen, Germany) an open reservoir (10 mL Combitip, Eppendorf) and a chamber made of a piece of polyethylene-Tube, ([…] Polyethylene Tubing, Clay Adams, PE160, length: 6.5 cm) containing a loop of a roughened thread (fishing line: Okuma UltraMax whitefish, diameter: 0.14 mm, length: 5 cm; sandpaper: CAMI Grit designation: 600, CP918a, VSM) was used for thrombus formation. The connection between the intermediate tube and the thrombus chamber was made by trimmed tips (epTIPS, 200 μL, Eppendorff, Hamburg/Germany). The Reservoir and the thrombus chamber were fixed by clamps and stands. A peristaltic-pump (Minipuls 3, Gilson, Middelton/USA) was used to pump the blood around thereby adjusting the flow in the middle of the thrombus chamber to 70-90 cm per second, which was monitored by ultrasound Doppler measurement (Vevo 770 High-Resolution In Vivo Micro-Imaging System, VisualSonics, Toronto/Ontario, Canada; Scanhead: RMV 704, 40 MHz). The volume of the entire tube-set was 7.5 or 15 mL.
For each experiment fresh blood was taken from a volunteer using 10 mL citrate-tubes (Sarstedt S-Monovette 02.1067.001, 10 mL, Citrate 3.13%) and immediately laid into the turning-device of an incubator at a temperature of 37° C. (Heraeus miniTherm CTT with integrated rotation- and turning device, turning speed: 19 rotations per minute, Heraeus Instruments GmbH, Hanau/Germany). As needed, two tubes were taken out of the turning-device and 15 mL were transferred to a 20 mL Syringe (Omnifix®, B. Braun, Melsungen/Germany) and gently mixed with 0.75 mL CaCl2—Solution before the peristaltic pump was started and the whole content of the syringe was transferred into the reservoir of the tube-set via a cell strainer (BD Falcon™ cell strain, 40 μm, BD, Franklin Lakes, N.J. USA). […] Then, the pump was stopped, aliquots were taken from the blood and the thrombus together with the roughened thread was removed from the thrombus-chamber before both was weighted and measured in a gamma counter (Automatic Gamma Counter Wizard^2 3, Perkin Elmer). […] Finally the activity of the compound in blood and thrombus as well as the ratio between both was determined (cpm/weight [mg]). […]

[6] = system: arterial and venous thrombi; assay: Thrombus PET imaging and in vivo clot-to-blood ratio in cynomolgus monkeys; set-up: species or system cynomolgus monkey
Description: Thrombus-Imaging in Cynomolgus Monkeys
The ability of the compound described in example 40 for the imaging of thrombi was investigated in a PET-study with cynomolgus monkeys (female, 2.8-3.2 kg).
The first monkey was anesthetized with a mixture of Xylazin (Rompun®, Bayer HealthCare, Leverkusen, Germany), 0.12 mL/Kg and Ketamine (Ketavet®, Pfizer) 0.12 mL/Kg b.w. i.m. and additionally analgesized by an i.m. injection of 6 μg Buprenorphine per kg. While the investigation, small amounts of Ketamine have been injected i.m. if required. The left common carotid artery was exposed surgically and a polyethylene-tube ([…] Polyethylene Tubing, Clay Adams, PE50), which was roughened previously by sandpaper (600—CAMI Grit designation), was inserted into the vessel, advanced into the descending aorta and was left there for 30 minutes to allow for the development of a thrombus on the rough surface of the tube. Meanwhile, the monkey was placed inside the PET-scanner (Inveon PET/CT, Siemens Medical, Erlangen). […] The thickness of this layer was far below 1 mm (see also removed thrombus of Monkey 2, FIG. 7) and therewith also far below the resolution of the image, which is approximately 1 mm. This also means, that even slightest thrombi, even if their size is far less than the resolution of the imaging-device, can be visualized due to the massive accumulation of compound on the platelets of the thrombi.
At the end of the experiment the tube was removed carefully from the vessel before it was weighted and measured in a gamma counter (Automatic Gamma Counter Wizard^2 3, Perkin Elmer). […] Finally the activity of the compound in blood and thrombus as well as the ratio between the two was determined (cpm/weight [mg]). […]
The in vivo clot-to-blood ratio was determined from 5 thrombi out of the above described monkey experiments. As already mentioned above the thrombi had been removed from the vessels after imaging and had been weighted and measured in a gamma-counter (Automatic Gamma Counter Wizard^2 3, Perkin Elmer) together with blood samples taken from the animal. After incubation of the thrombi in Plasmin (Plasmin from Human Plasma, Sigma Aldrich, Plasmin-stock-solution: 500 μg Plasmin in 500 μL Tris-buffer (150 μM, pH 7.8), 20 μL Plasmin-stock-solution to 230 μL saline solution 0.9%) and removal of the thrombi from the catheter tubes, the netto weight of the thrombi was calculated and the concentration of the compound in thrombus (clot) and blood, as well as the ratio between the two was calculated.

[7] = Blood clearance in a cynomolgus monkey (PET and gamma counter); format: in vivo; conditions: 25 MBq i.v., PET
Description: FIG. 4: Blood kinetics of the compound described in example 40 in cynomolgus monkey.
PET-imaging was performed continuously from shortly before up to 60 minutes post injection. Venous blood samples were taken at 3, 10, 30 and 60 minutes p.i. and were measured in a gamma-counter (Automatic Gamma Counter Wizard^2 3, Perkin Elmer) and expressed as cpm/mg blood. Additionally, the blood-concentration of the compound was measured from the PET-Image over the whole imaging period and expressed as % ID/g.
Blood Clearance in a Cynomolgus Monkey
The blood clearance of the compound described in example 40 has been determined in a cynomolgus monkey. A female cynomolgus monkey was anesthetized with a mixture of Xylazin (Rompun®, Bayer HealthCare, Leverkusen, Germany), 0.12 mL/kg bodyweight and Ketamine (Ketavet®, Pfizer) 0.12 mL/kg bodyweight i.m. The monkey was placed inside the PET-scanner (Inveon PET/CT, Siemens Medical, Erlangen) and 25 MBq of the compound has been injected i.v. while PET-imaging was performed continuously from shortly before up to 60 minutes post injection. Venous blood samples were taken at 3, 10, 30 and 60 minutes p.i. and were measured in a gamma-counter (Automatic Gamma Counter Wizard^2 3, Perkin Elmer). Additionally, the blood-concentration of the compound was measured from the PET-Image over the whole imaging period (FIG. 4).

[8] = Pharmacokinetics / biodistribution in mice; format: in vivo; conditions: nude mice, 185 KBq
Description: FIG. 3: Biodistribution of the compound described in example 41 in mice.
The biodistribution of the compound described in example 41 was determined in nude mice. Briefly, the mice received 185 KBq of the compound each. At different time points (1, 3, 10, 30, 120 minutes p.i., 3 mice per group) the animals were sacrificed and the organs of interest or aliquots thereof were removed, weighted and finally measured in a gamma counter (Automatic Gamma Counter Wizard^2 3, Perkin Elmer).

Structure (SMILES): O=C(O)C[C@H](NC(=O)[C@@H]1CCCN(C(=O)CCC2CCNCC2)C1)c1cncc(OCCF)c1 [Compound 3]
recovery [1]: ~100%

Structure (SMILES): O=C(O)C[C@H](NC(=O)[C@@H]1CCCN(C(=O)CCC2CCNCC2)C1)c1cncc(OCCF)c1 [Example 3, (3S)-3-[5-(2-Fluoroethoxy)pyridin-3-yl]-3-[({(3R)-1-[3-(piperidin-4-yl)propanoyl]-piperidin-3-yl}carbonyl)amino]propanoic acid]
CLblood [2]: 2.4 mL/day/kg
CLblood [3]: 2.4 mL/day/kg
CLblood [4]: 2.4 mL/day/kg
CLblood [5]: 2.4 mL/day/kg

Structure (SMILES): O=C(O)C[C@H](NC(=O)[C@@H]1CCCN(C(=O)CCC2CCNCC2)C1)c1cccc(OCC[18F])c1 [Example 38, (3S)-3-[3-(2-[^18F]Fluoroethoxy)phenyl]-3-[({(3R)-1-[3-(piperidin-4-yl)propanoyl]piperidin-3-yl}carbonyl)amino]propanoic acid]
Accumulation Thrombus [10^3 cpm/mg] (human thrombi): 41 ± 3 (n = 5) 10^3 cpm/mg

Structure (SMILES): O=C(O)C[C@H](NC(=O)[C@@H]1CCCN(C(=O)CCC2CCNCC2)C1)c1ccc(OCC[18F])cc1 [Example 39, (3S)-3-[4-(2-[^18F]Fluoroethoxy)phenyl]-3-[({(3R)-1-[3-(piperidin-4-yl)propanoyl]piperidin-3-yl}carbonyl)amino]propanoic acid]
Accumulation Thrombus [10^3 cpm/mg] (human thrombi): 86 ± 9 (n = 6) 10^3 cpm/mg

Blood [cpm/mg] ([6]; blood samples after imaging, Cynomolgus monkey): 90 cpm/mg and 130 cpm/mg and 100 cpm/mg
contrast in the brain [7]: completely free of contrast
Structure (SMILES): O=C(O)C[C@H](NC(=O)[C@@H]1CCCN(C(=O)CCC2CCNCC2)C1)c1cncc(OCC[18F])c1 [Example 40, (3S)-3-[5-(2-[^18F]Fluoroethoxy)pyridin-3-yl]-3-[({(3R)-1-[3-(piperidin-4-yl)propanoyl]piperidin-3-yl}carbonyl)amino]propanoic acid]
PET signal / accumulation in thrombi ([6]; cynomolgus monkeys, 25 MBq or 15 MBq i.v., up to 60 minutes p.i.): bright signal inside the descending aorta alongside the roughened part of the tube; also recorded: all arterial and venous thrombi showed a bright signal; also recorded: surprisingly high accumulation even in slightest venous and arterial thrombi
retention within the thrombus ([6]; cynomolgus monkeys, 60 minutes shown): almost completely remains within the thrombus over a long time
background in surrounding tissue or organ ([6]; cynomolgus monkeys, PET): almost no background in any surrounding tissue or organ
signal in other tissue [7]: only marginal signal visible in any other tissue

elimination from the blood [8]: rapidly eliminated from the blood
enhancement in the vessel-wall [8]: no enhancement in the vessel-wall
Structure (SMILES): O=C(O)C[C@H](NC(=O)[C@@H]1CCCN(C(=O)CCC2CCNCC2)C1)c1cncc(-c2ccc(OCC[18F])cc2)c1 [Example 41, (3S)-3-{5-[4-(2-[^18F]Fluoroethoxy)phenyl]pyridin-3-yl}-3-[({(3R)-1-[3-(piperidin-4-yl)propanoyl]piperidin-3-yl}carbonyl)amino]propanoic acid]
excretion [8]: quickly excreted over the kidney and liver
Accumulation Thrombus [10^3 cpm/mg] (human thrombi): 44 ± 7 (n = 6) 10^3 cpm/mg

Structure (SMILES): N#Cc1cc(-c2cncc([C@H](CC(=O)O)NC(=O)[C@@H]3CCCN(C(=O)CCC4CCNCC4)C3)c2)ccc1[18F] [Example 42, (3S)-3-[5-(3-Cyano-4-[^18F]fluorophenyl)pyridin-3-yl]-3-[({(3R)-1-[3-(piperidin-4-yl)propanoyl]piperidin-3-yl}carbonyl)amino]propanoic acid]
Accumulation Thrombus [10^3 cpm/mg] (human thrombi): 39 ± 5 (n = 6) 10^3 cpm/mg
